Source: patent US20110212467A1, “INHIBITORS OF dUTPase” (UNIVERSITY OF SOUTHERN CALIFORNIA, priority 2008, published 2011)
Blank lines part the entries; values can stand above or below the compound they belong to.

Assays:
dUTPase = molecular target: T1, dUTPase (Homo sapiens, UniProt P33316); experiment: dUTPase activity assay, % inhibition of dUTPase catalysis at 100 μM (Table 1); format: biochemical; conditions: fixed concentration of 100 μM
T1 sequence (P33316 94-252 limits assumed): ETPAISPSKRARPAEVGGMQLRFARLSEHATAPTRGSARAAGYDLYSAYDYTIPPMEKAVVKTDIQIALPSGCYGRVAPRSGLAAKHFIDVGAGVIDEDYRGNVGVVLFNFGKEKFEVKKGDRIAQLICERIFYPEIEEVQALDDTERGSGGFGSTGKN
Protocol: dUTPase Activity Assay Cells were harvested and protein isolated and quantified as per Western blotting. Twenty-five μg of total protein was normalized to a 20 μl reaction volume with PBS/protease inhibitor. Relative dUTPase activity was determined as previously described (9) and is expressed as fold-change compared to an identical transfection in the presence of 0.5 μg/ml dox.
These molecules were tested in our dUTPase activity assay at an initial 100 μM in vitro to determine their percentage inhibition of dUTPase catalysis relative to un-inhibited control. Table 1 illustrates the docking fitness scores of the top four active compounds and their ability to inhibit dUTPase activity.

[1] = tested on: MCF-7 human breast cancer cell line; experiment: Growth inhibition by MTS assay in MCF-7 cells, alone and combined with FUdR; format: cell-based; conditions: MCF-7, MTS assay; for IC50: Homo sapiens, MCF7, read-out: concentration required to inhibit 50% cell growth; for combined drug effect with FUdR on growth inhibition: compound fixed at 62.5 μM with increasing concentrations of FUdR
Protocol: FIG. 9. Inhibitors of dUTPase induce growth arrest in the MCF-7 human breast cancer cell line. (A) MCF-7 cells were exposed to increasing concentrations of two novel dUTPase inhibitory lead compounds and growth inhibition was analyzed by MTS assay. […] (B) DU-203 at a fixed concentration of 62.5 μM was combined with increasing concentrations of FUdR and the combined drug effect analyzed by MTS assay and the degree of synergy determined using the methods of Chou and Talalay. […] BB-123 enhances the growth arrest of MCF-7 cells when combined with FUdR. (C) BB-123 at a fixed concentration of 62.5 μM was combined with increasing concentrations of FUdR and the combined drug effect analyzed as described previously.
Inhibitors of dUTPase induce growth arrest in the MCF-7 human breast cancer cell line. […] These growth inhibitory effects are consistent with the inhibition of dUTPase and the resultant accumulation of dUTP and uracil misincorporation during DNA replication. To test the specificity of these inhibitors, DU-203 and BB-123 were combined with the inhibitor of thymidylate synthase (TS), FUdR.

DPD = molecular target: T2, DPD (Homo sapiens, UniProt Q12882); conditions: cited from earlier work
T2 construct: host or cells: liver
T2 sequence (Q12882 4-1025): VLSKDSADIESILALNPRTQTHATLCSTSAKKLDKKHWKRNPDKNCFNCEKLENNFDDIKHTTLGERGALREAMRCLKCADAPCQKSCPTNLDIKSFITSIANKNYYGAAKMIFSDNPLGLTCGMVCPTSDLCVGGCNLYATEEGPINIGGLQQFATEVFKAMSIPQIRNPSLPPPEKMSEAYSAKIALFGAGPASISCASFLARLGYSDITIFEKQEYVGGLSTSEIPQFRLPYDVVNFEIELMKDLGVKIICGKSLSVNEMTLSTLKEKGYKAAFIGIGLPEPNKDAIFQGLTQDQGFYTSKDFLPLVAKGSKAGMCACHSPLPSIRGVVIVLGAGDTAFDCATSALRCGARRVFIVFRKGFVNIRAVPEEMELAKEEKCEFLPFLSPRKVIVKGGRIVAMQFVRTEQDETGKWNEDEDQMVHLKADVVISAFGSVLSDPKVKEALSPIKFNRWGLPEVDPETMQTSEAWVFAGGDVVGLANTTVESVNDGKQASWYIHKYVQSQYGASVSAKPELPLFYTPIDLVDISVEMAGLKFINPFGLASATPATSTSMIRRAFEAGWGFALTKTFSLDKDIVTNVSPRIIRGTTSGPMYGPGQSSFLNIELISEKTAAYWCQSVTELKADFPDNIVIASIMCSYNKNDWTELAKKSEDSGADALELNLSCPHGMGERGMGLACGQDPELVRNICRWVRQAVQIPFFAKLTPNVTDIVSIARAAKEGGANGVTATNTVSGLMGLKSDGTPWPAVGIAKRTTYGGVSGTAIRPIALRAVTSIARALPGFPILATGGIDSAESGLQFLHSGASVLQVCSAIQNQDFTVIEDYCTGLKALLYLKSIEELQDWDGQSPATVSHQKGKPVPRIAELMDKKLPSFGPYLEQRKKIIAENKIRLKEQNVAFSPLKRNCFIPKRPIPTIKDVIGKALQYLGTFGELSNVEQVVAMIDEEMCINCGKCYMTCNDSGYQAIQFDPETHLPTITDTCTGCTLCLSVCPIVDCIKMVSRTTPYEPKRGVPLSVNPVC

MCF-7 pTet-off cells [2] = experiment: dUTP accumulation assay; format: cell-based, human; conditions: 24 h; for reduction in dUTP pool expansion with dUTPase overexpression versus basal dUTPase: 10 μM 5-FU or 1 μM FUdR
Protocol: FIG. 5. Elevated dUTPase Protects Breast Cancer Cells from 5-FU. (A) Western blot and analysis of dUTPase expression and corresponding dUTPase enzyme activity assay following 72 h transfection with pTre-Tight:DUT-N in the presence and absence of 0.5 μg/m1 dox, Histogram bars represent the mean ±SEM of corresponding Western lysates analyzed in duplicate. (B) Analysis of dUTP accumulation in pTre-Tight:DUT-N-transfected MCF-7 psTet-off cells with basal (+dox) and induced (−dox) dUTPase expression and treated with 10 μM 5-FU, 1 μM FUdR and taxol (paclitaxel) 5 nM for 24 h, % dUTP was calculated as described in ‘Materials and Methods’, Histogram bars represent the mean ±SEM of two independent treatments, †=dUTP not detected. (C) Growth inhibition measured by MTS assay in pTre-Tight:DUT-N-transfected MCF-7 pTet-off cells following treatment with increasing concentrations (in μM) of 5-FU for 72 h. Histogram bars represent the mean ±SEM of three independent treatments, *=p<0.05, **=p<0.01.
dUTP Accumulation Assay MCF-7 pTet-off cells were treated with specified concentrations of 5-FU, FUdR and taxol for indicated times, harvested, and 3×10^6 cells were analyzed for nucleotide pool content using the assay developed by Sherman and Fyfe (10) modified to detect levels of TTP and dUTP by pre-incubating extracts with recombinant dUTPase (9, 11). Radioactive incorporation, measured in the presence of dUTPase represented the TTP pool, while untreated extracts represented both the dUTP and TTP pools. dUTP accumulation was determined by subtracting the results of extracts treated with dUTPase from untreated extracts and presented as % accumulation in histogram format. Statistical significance was determined using a two-tailed unpaired Student's t-test (Graphpad, San Diego, Calif.).
Elevated dUTPase Protects Breast Cancer Cells from 5-FU. […] A tetracycline-repressible dUTPase expression construct and overexpressed dUTPase with an approximate 4-fold increase in expression and enzymatic activity in transfected tet-inducible MCF-7 pTet-off cells (FIG. 5A) was utilized. […]

MCF-7 pTet-off cells [3] = experiment: Growth inhibition assay in MCF-7 pTet-off cells; format: cell-based; conditions: Homo sapiens, MCF7; MCF-7 cells, 72 h
Protocol: Growth Inhibition Assay MCF-7 pTet-off cells were transfected in the presence or absence of 0.5 μg/ml of dox and growth inhibition was measured as previously (9) using CellTiter 96® AQueous One Solution (Promega, Madison, Wis.). Cells were exposed to increasing concentrations of 5-FU for 72 h. Absorbance was measured using a SpectraMax 190 microplate reader (Molecular Devices, Sunnyvale, Calif.) at 490 nm, with drug treated cells compared to untreated controls set at 100%. Statistical significance was determined using a two-tailed unpaired Student's t-test (Graphpad, San Diego, Calif.).
We subsequently investigated the effects of dUTPase overexpression on growth inhibition following exposure of MCF-7 pTet-off cells to increasing concentrations of 5-FU.

advanced breast cancer = conditions: cited from earlier work; for time to progression: capecitabine alone, or lapatinib combined with capecitabine

Structure (SMILES): CC(=O)CSc1nc2c(c(=O)[nH]c(=O)n2C)n1CC(O)COc1ccccc1C (centres unmarked) [BB37]
- inhibition at 100 µM (dUTPase): 34%

Structure (SMILES): O=c1[nH]c(=O)n([C@H]2C[C@H](O)[C@@H](CO)O2)cc1F [FUdR, fluorodeoxyuridine]
- reduction in dUTP pool expansion with dUTPase overexpression versus basal dUTPase (MCF-7 pTet-off cells [2]): 38%

Structure (SMILES): CCCCCOC(=O)Nc1nc(=O)n([C@@H]2O[C@H](C)[C@@H](O)[C@H]2O)cc1F [capecitabine]
- time to progression (advanced breast cancer): 19.7 weeks

Structure (SMILES): CS(=O)(=O)CCNCc1ccc(-c2ccc3ncnc(Nc4ccc(OCc5cccc(F)c5)c(Cl)c4)c3c2)o1 [lapatinib]
- time to progression (advanced breast cancer): 36.9 weeks
- improved response rate compared to capecitabine alone (advanced breast cancer; combined with capecitabine, ErbB2 positive advanced breast cancer, previously failed multiple lines of therapy): 12.2%

Structure (SMILES): CC(=O)O[C@H]1C(=O)[C@@]2(C)[C@H]([C@H](OC(=O)c3ccccc3)[C@]3(O)C[C@H](OC(=O)[C@H](O)[C@@H](NC(=O)c4ccccc4)c4ccccc4)C(C)=C1C3(C)C)[C@]1(OC(C)=O)CO[C@@H]1C[C@@H]2O [paclitaxel]
- dUTP detection (MCF-7 pTet-off cells [2]; taxol 5 nM, basal or induced dUTPase expression): no detection of dUTP

Further lines, with some results ahead:

- IC50 [1]: 73.8 µM
Structure (SMILES): CCc1ccc(N2CN(c3ccc(CC)cc3)CN(c3ccc(CC)cc3)C2)cc1 [BB123]
- combined drug effect with FUdR on growth inhibition [1]: enhanced growth inhibition at all concentrations tested
- combined drug effect with FUdR on growth inhibition ([1]; listed as BB-123): enhanced growth inhibition is observed at all concentrations tested

- IC50 (MCF-7 pTet-off cells [3]): > 10 µM
Structure (SMILES): O=c1[nH]cc(F)c(=O)[nH]1 [Compound 5-FU, 5-fluorouracil]
- 5-FU degraded by DPD in the liver (DPD): > 80%
- reduction in dUTP pool expansion with dUTPase overexpression versus basal dUTPase (MCF-7 pTet-off cells [2]): 37%

- inhibition at 100 µM (dUTPase): 55.7%
Structure (SMILES): CCCc1ccc(OCC(=O)Nc2ccc(S(=O)(=O)Nc3onc(C)c3C)cc2)cc1 [Du 7]

- inhibition at 100 µM (dUTPase): 28.5%
Structure (SMILES): Cc1cc(C)c(NC(=O)CSc2nc3ccc(NC(=O)CSc4nnc(COc5ccccc5)n4-c4ccccc4)cc3s2)c(C)c1 [Du 44]

- % dUTPase Inhibition (dUTPase): Inactive
Structure (SMILES): N#Cc1c(N)nc(SCC(=O)c2ccc(F)cc2)c(C#N)c1-c1ccc(OCc2ccccc2)cc1 [Du 202]

- IC50 [1]: 65.1 µM
Structure (SMILES): COc1cc(/C=N/NC(=O)C(Cc2c[nH]c3ccccc23)NC(=O)OCc2ccccc2)cc([N+](=O)[O-])c1O (centres unmarked) [Du 203]
- combined drug effect with FUdR on growth inhibition [1]: enhanced growth inhibition is observed at all concentrations tested
